# Reference: patent US20090048301A1 (IMCLONE SYSTEMS INCORPORATED, priority 2003, published 2009)
# Test system: bovine tubulin
# Experiment: In vitro tubulin polymerization assay (turbidity at 340 nm)
# Assay type: biochemical
# Details: 10 μM compound, 30 minute data point, vs 1% DMSO control
# Experimental: Briefly, tubulin polymerization is a kinetic process that is temperature-dependent and requires GTP and was performed as follows. Soluble tubulin dimers polymerize into microtubules upon warming, and polymerization in vitro correlates with an increase in turbidity (measured at 340 nm). Lyophilized bovine tubulin (HTS Tubulin—97% tubulin, <3% MAPs—Cytoskeleton Inc.) was ressuspended in G-PEM buffer (80 mM PIPES pH 7, 1 mM EGTA, 1 mM MgCl2, 1 mM GTP, 5% glycerol) to a final concentration of 3 mg/ml and kept at 4° C. Compounds in 100× stock solutions in DMSO were dotted to pre-warmed 96-well plates (Corning Costar 3696), the plates were transferred to a 37° C. plate reader (SPECTRAmax Plus, Molecular Devices), cold tubulin was added to the wells, and the plates were shaken for mixing. The absorbance at 340 nm was determined at one minute intervals for 30 minutes. Kinetic curves with 30 points each were collected for each compound, and the dynamic range was between 0 and 0.4 OD units. The percentage inhibition values were calculated using the 30 minute data point and based on control samples (treated with 1% DMSO only). The assay is a modified version of the HTS kit sold by Cytoskeleton (1830 S. Acoma St., Denver, Colo.), adapted to maximize throughput and reduce time, without reduction in dynamic range or sensitivity, while retaining the ability to detect compounds that inhibit or enhance tubulin polymerization.
# Tubulin polymerization is a kinetic process that is temperature-dependent and requires GTP. Soluble tubulin dimers polymerize into microtubules upon warming, and polymerization in vitro correlates with an increase in turbidity (measured at 340 nm). Liophilized bovine tubulin (HTS Tubulin—97% tubulin, <3% MAPs—Cytoskeleton Inc.) was ressuspended in G-PEM buffer (80 mM PIPES pH 7, 1 mM EGTA, 1 mM MgCl2, 1 mM GTP, 5% glycerol) to a final concentration of 3 mg/ml and kept at 4° C. Compounds in 100× stock solutions in DMSO were dotted to pre-warmed 96-well plates (Corning Costar 3696), the plates were immediately transferred to a 37° C. plate reader (SPECTRAmax Plus, Molecular Devices), cold tubulin was added to the wells, plates were shaken for mixing, and absorbance at 340 nm was read every minute for 30 minutes. Kinetic curves with 30 points each were collected for each compound, and the dynamic range was between 0 and 0.4 OD units. Percentage inhibition values were calculated using the 30 minute data point, based on control samples (treated with 1% DMSO only). This assay is a modified version of the HTS kit sold by Cytoskeleton, adapted to maximize throughput and reduce time, without reduction in dynamic range or sensitivity, while retaining the ability to detect compounds that inhibit or enhance tubulin polymerization.
row,SMILES,Tubulin Assay: percent inhibition at 10 μM based on 30 minute data
1,"CN(C)c1ccc(Nc2nnc(-c3ccccc3NCc3ccc(F)c(F)c3)[nH]2)cc1 [Compound 121, {5-[2-(3,4-Difluoro-benzylamino)-phenyl]-4H-[1,2,4]triazol-3-yl}-(4-dimethylamino-phenyl)-amine]",23%
2,O=[N+]([O-])c1cc(C(F)(F)F)ccc1-c1nnc(Nc2ccc3c(c2)OCO3)[nH]1 [Compound 124b],26%
3,"Nc1cc(C(F)(F)F)ccc1-c1nnc(Nc2ccc3c(c2)OCO3)[nH]1 [Compound 124c, [5-(2-Amino-4-trifluoromethyl-phenyl)-4H-[1,2,4]triazol-3-yl]-benzo[1,3]dioxol-5-yl-amine]",61%
4,"FC(F)(F)c1ccc(-c2nnc(Nc3ccc4c(c3)OCO4)[nH]2)c(NCc2cccnc2)c1 [Compound 125, Benzo[1,3]dioxol-5-yl-(5-{2-[(pyridin-3-ylmethyl)-amino]-4-trifluoromethyl-phenyl}-4H-[1,2,4]triazol-3-yl)-amine]",96%
5,"COc1cc(CNc2cc(C(F)(F)F)ccc2-c2nnc(Nc3ccc4c(c3)OCO4)[nH]2)cc(OC)c1 [Compound 126, Benzo[1,3]dioxol-5-yl-{5-[2-(3,5-dimethoxy-benzylamino)-4-trifluoromethyl-phenyl]-4H-[1,2,4]triazol-3-yl}-amine]",93%
6,"O=[N+]([O-])c1ccccc1-c1nnc(Nc2ccc3c(c2)OCCO3)[nH]1 [Compound 127a, (2,3-Dihydro-benzo[1,4]dioxin-6-yl)-[5-(2-nitro-phenyl)-4H-[1,2,4]triazol-3-yl]-amine]",22%
7,"Nc1ccccc1-c1nnc(Nc2ccc3c(c2)OCCO3)[nH]1 [Compound 127b, [5-(2-amino-phenyl)-4H-[1,2,4]triazol-3-yl]-(2,3-dihydro-benzo[1,4]dioxin-6-yl)-amine]",20%
8,"N#Cc1ccc(S(=O)(=O)Nc2ccccc2-c2nnc(Nc3ccc4c(c3)OCCO4)[nH]2)cc1 [Compound 128, 4-Cyano-N-{2-[5-(2,3-dihydro-benzo[1,4]dioxin-6-ylamino)-4H-[1,2,4]triazol-3-yl]-phenyl}-benzenesulfonamide]",42%
9,"CS(=O)(=O)c1ccc(-c2nnc(-c3ccccc3NCC3CCOC3)[nH]2)cc1 (stereo not shown) [Compound 134, {2-[5-(4-Methanesulfonyl-phenyl)-4H-[1,2,4]triazol-3-yl]-phenyl}-(tetrahydro-furan-3-ylmethyl)-amine]",34%
10,"COc1cc(CNc2ccccc2-c2nnc(-c3cccc(OC)c3)[nH]2)cc(OC)c1 [Compound 135, (3,5-Dimethoxy-benzyl)-{2-[5-(3-methoxy-phenyl)-4H-[1,2,4]triazol-3-yl]-phenyl}-amine]",23%
11,"COc1cccc(-c2nnc(-c3ccccc3NCc3ccc4[nH]cnc4c3)[nH]2)c1 [Compound 137, (1H-Benzoimidazol-5-ylmethyl)-{2-[5-(3-methoxy-phenyl)-4H-[1,2,4]triazol-3-yl]-phenyl}-amine]",28%
12,"FC(F)(F)c1ccc(-c2nnc(-c3ccccc3NCc3ccc4c(c3)OCO4)[nH]2)cc1 [Compound 138, Benzo[1,3]dioxol-5-ylmethyl-{2-[5-(4-trifluoromethyl-phenyl)-4H-[1,2,4]triazol-3-yl]-phenyl}-amine]",28%
13,"FC(F)(F)c1ccc(-c2nnc(-c3ccccc3NCc3ccc4c(c3)OCCO4)[nH]2)cc1 [Compound 139, (2,3-Dihydro-benzo[1,4]dioxin-6-ylmethyl)-{2-[5-(4-trifluoromethyl-phenyl)-4H-[1,2,4]triazol-3-yl]-phenyl}-amine]",21%
